Reference: PMC8760513, “Mechanistic details of the actinobacterial lyase-catalyzed degradation reaction of 2-hydroxyisobutyryl-CoA” (The Journal of Biological Chemistry, 2021)

Target: T1, AcHACL (Actinomycetospora chiangmaiensis, UniProt P0DUV9)
T1 construct: recombinant from E. coli Lemo21(DE3), vector pASG-IBA43, N-terminal His-tag and C-terminal Strep-tag; tag removal not mentioned; homotetramer (dimer of dimers); C-terminal lid residues 556-590
T1 sequence (P0DUV9 1-590): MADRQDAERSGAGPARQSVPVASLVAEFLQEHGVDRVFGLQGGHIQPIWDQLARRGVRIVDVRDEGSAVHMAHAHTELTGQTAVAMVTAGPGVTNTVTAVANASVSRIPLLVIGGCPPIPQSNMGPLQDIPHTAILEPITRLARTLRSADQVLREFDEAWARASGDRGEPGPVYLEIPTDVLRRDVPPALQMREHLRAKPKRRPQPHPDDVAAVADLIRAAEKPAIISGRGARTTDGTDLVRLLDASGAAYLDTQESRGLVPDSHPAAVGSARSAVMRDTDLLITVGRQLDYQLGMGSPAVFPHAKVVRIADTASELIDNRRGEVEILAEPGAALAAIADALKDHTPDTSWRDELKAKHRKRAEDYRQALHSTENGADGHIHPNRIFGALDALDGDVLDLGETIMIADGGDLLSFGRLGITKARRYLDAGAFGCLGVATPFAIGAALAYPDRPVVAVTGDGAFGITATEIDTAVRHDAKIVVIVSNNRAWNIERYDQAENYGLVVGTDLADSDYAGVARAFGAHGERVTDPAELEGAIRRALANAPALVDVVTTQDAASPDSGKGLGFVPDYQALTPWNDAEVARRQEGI
Assay: X-ray crystal structure, […] Å
Format: binding

Row | Compound | X-ray crystal structure, 1.64 Å (product-bound dimer, additional density near ThDP interpreted as acetone, hydrogen bond to E493) | X-ray crystal structure, 1.64 Å (product-bound dimer formed from 2-HIB-CoA in the crystal, density not well defined beyond the pantoyl moiety)
1 | CC(C)=O [acetone] | additional electron density close to the ThDP cofactor was interpreted as an acetone molecule | 
2 | CC(C)(COP(=O)(O)OP(=O)(O)OC[C@H]1O[C@@H](n2cnc3c(N)ncnc32)[C@H](O)[C@@H]1OP(=O)(O)O)[C@@H](O)C(=O)NCCC(=O)NCCSC=O [formyl-CoA] |  | the products formyl-CoA and acetone are bound to the other dimer
